Results published in patent US20200207759A1, “NEW PROPANAMINE DERIVATIVES FOR TREATING PAIN AND PAIN RELATED CONDITIONS” (ESTEVE PHARMACEUTICALS, S.A., priority 2017, published 2020).

Columns and labels:
[1] = molecular target: Human α2δ-1 subunit of Cav2.2 calcium channel (Homo sapiens, UniProt P54289); experiment: Binding assay to human α2δ-1 subunit of Cav2.2 calcium channel, [3H]-Gabapentin; conditions: human α2δ-1 enriched membranes, 15 nM [3H]-Gabapentin; read-out: Ki (nM) alpha2delta Hum
Sequence of Human α2δ-1 subunit of Cav2.2 calcium channel (P54289 25-1103): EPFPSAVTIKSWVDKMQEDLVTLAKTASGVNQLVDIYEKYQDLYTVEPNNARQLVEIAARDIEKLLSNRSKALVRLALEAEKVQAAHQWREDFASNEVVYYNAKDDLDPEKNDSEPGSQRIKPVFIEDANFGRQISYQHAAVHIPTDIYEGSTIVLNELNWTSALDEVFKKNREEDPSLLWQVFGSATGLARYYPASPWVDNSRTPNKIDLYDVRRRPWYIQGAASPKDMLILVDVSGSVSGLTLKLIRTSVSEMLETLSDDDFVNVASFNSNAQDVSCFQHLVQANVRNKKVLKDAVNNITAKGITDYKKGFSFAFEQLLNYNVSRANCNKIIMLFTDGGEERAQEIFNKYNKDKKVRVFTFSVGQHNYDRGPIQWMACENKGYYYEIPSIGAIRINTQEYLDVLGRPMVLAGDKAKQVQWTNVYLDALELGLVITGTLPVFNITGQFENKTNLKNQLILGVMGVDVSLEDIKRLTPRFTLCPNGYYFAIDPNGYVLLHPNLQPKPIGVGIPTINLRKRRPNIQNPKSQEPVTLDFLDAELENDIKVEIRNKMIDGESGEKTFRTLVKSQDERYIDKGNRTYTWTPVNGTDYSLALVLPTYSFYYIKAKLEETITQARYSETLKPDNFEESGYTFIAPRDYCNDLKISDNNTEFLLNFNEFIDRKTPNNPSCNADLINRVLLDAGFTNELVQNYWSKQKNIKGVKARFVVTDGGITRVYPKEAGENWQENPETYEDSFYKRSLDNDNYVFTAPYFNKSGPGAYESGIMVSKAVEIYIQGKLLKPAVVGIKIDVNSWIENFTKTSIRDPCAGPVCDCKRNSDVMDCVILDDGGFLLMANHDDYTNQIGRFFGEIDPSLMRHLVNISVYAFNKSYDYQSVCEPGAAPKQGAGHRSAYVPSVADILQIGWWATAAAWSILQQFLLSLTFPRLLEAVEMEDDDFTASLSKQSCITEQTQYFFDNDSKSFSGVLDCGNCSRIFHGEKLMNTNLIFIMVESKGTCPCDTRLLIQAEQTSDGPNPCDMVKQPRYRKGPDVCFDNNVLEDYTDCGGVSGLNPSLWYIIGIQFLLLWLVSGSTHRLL
Summary of the method: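 Human α2δ-1-enriched membranes incubated with 15 nM [3H]-gabapentin in 10 mM Hepes-KOH pH 7.4, 60 min at 27 °C; nonspecific binding defined with 10 μM pregabalin. Bound ligand separated by filtration on PEI-presoaked GF/C filters, washed with ice-cold 50 mM Tris-HCl pH 7.4, counted by scintillation.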

[2] = molecular target: Human norepinephrine transporter (NET) (Homo sapiens, UniProt P23975); experiment: Binding assay to human norepinephrine transporter (NET), [3H]-Nisoxetin; conditions: human NET enriched membranes, 5 nM [3H]-Nisoxetin; read-out: Ki (nM) NET Hum
Sequence of Human norepinephrine transporter (NET) (P23975 whole entry): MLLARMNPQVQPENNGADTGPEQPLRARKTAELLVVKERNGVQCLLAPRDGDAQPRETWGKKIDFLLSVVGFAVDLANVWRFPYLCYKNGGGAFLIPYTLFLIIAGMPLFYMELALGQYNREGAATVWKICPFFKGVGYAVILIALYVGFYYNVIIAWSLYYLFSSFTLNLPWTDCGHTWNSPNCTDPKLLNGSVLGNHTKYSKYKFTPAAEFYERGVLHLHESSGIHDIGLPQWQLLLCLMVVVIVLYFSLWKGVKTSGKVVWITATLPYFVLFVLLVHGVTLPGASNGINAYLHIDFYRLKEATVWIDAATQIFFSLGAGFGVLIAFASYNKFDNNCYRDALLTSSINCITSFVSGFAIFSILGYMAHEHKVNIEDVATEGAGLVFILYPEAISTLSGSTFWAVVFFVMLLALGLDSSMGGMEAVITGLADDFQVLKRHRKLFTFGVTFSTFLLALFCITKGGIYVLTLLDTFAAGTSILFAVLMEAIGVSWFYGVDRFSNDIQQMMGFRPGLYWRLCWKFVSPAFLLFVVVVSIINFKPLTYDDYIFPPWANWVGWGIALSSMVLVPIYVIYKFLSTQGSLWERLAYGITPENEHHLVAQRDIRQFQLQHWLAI
Summary of the method: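 NET-enriched membranes (5 μg) incubated with 5 nM [3H]-nisoxetin in 50 mM Tris-HCl, 120 mM NaCl, 5 mM KCl, pH 7.4, for 60 min at 4 °C. Separation by filtration on PEI-soaked GF/C, then scintillation counting.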

`CNCC[C@H](c1cscc1C)N1CCc2ncccc21` [Example 51, (R)-3-(2,3-Dihydro-1H-pyrrolo[3,2-b]pyridin-1-yl)-N-methyl-3-(4-methylthiophen-3-yl)propan-1-amine] was tested, and the Ki [1] was at least 3000 nM and the Ki [2] was over 1000 nM.
`CNCC[C@@H](c1ccc(C)s1)N1CCc2ncccc21` [Example 45, (S)-3-(2,3-Dihydro-1H-pyrrolo[3,2-b]pyridin-1-yl)-N-methyl-3-(5-methylthiophen-2-yl)propan-1-amine] showed a Ki [1] of 500 to 3000 nM and a Ki [2] of over 1000 nM.
In the case of `CNCC[C@H](c1cccc(F)c1)N1CCc2ncccc21` [Example 83, (R)-3-(2,3-Dihydro-1H-pyrrolo[3,2-b]pyridin-1-yl)-3-(3-fluorophenyl)-N-methylpropan-1-amine], the Ki [1] is reported as at least 3000 nM and the Ki [2] is reported as 100 to 500 nM.
`CNCC[C@@H](c1ccc(F)s1)N1CCc2ncccc21` [Example 19, (S)-3-(2,3-dihydro-1H-pyrrolo[3,2-b]pyridin-1-yl)-3-(5-fluorothiophen-2-yl)-N-methylpropan-1-amine] showed a Ki [1] of 100 to 500 nM and a Ki [2] of 500 to 1000 nM.
With `CNCCC(c1cccs1)N1CC(C)(C)c2ncc(F)cc21` (stereo not shown) [Example 66, 3-(6-Fluoro-3,3-dimethyl-2,3-dihydro-1H-pyrrolo[3,2-b]pyridin-1-yl)-N-methyl-3-(thiophen-2-yl)propan-1-amine] the Ki [1] was 100 to 500 nM and the Ki [2] was over 1000 nM.
With `CNCC[C@@H](c1ccsc1)N1CCc2ncc(C3CC3)cc21` [Example 53, (S)-3-(6-Cyclopropyl-2,3-dihydro-1H-pyrrolo[3,2-b]pyridin-1-yl)-N-methyl-3-(thiophen-3-yl)propan-1-amine] the Ki [1] was 500 to 3000 nM and the Ki [2] was over 1000 nM.
`CN(C)CCC(c1cccs1)N1CCc2ncccc21` (stereo not shown) [Example 15, 3-(2,3-Dihydro-1H-pyrrolo[3,2-b]pyridin-1-yl)-N,N-dimethyl-3-(thiophen-2-yl)propan-1-amine] was tested, and the Ki [1] was at least 3000 nM and the Ki [2] was over 1000 nM.
For `CNCC[C@@H](c1ccsc1)N1CC(C)(C)c2nc(C)c(F)cc21` [Example 89, (S)-3-(6-Fluoro-3,3,5-trimethyl-2,3-dihydro-1H-pyrrolo[3,2-b]pyridin-1-yl)-N-methyl-3-(thiophen-3-yl)propan-1-amine], the Ki [1] was 100 to 500 nM and the Ki [2] was 100 to 500 nM.
With `NCCC(c1cccs1)N1CCc2ncccc21` (stereo not shown) [Example 9, 3-(2,3-Dihydro-1H-pyrrolo[3,2-b]pyridin-1-yl)-3-(thiophen-2-yl)propan-1-amine] the Ki [1] was at least 3000 nM and the Ki [2] was over 1000 nM.
Compound `CNCC[C@@H](c1cccs1)N1CCc2ncc(F)cc21` [Example 27, (S)-3-(6-Fluoro-2,3-dihydro-1H-pyrrolo[3,2-b]pyridin-1-yl)-N-methyl-3-(thiophen-2-yl)propan-1-amine] has a Ki [1] of 100 to 500 nM and a Ki [2] of over 1000 nM.
`CNCC[C@H](c1ccsc1)N1CCc2ncc(C)cc21` [Example 103, (R)—N-methyl-3-(6-methyl-2,3-dihydro-1H-pyrrolo[3,2-b]pyridin-1-yl)-3-(thiophen-3-yl)propan-1-amine] showed a Ki [1] of 100 to 500 nM and a Ki [2] of over 1000 nM.
Work on `CNCCC(c1cccs1)N1CCc2c(OC)cccc21` (stereo not shown) [Example 69, 3-(4-Methoxyindolin-1-yl)-N-methyl-3-(thiophen-2-yl)propan-1-amine] yielded a Ki [1] of at least 3000 nM and a Ki [2] of under 100 nM.
In the case of `CNCC[C@@H](c1cccs1)N1CC(C)(C)c2nc(C)ccc21` [Example 35, (S)-N-methyl-3-(thiophen-2-yl)-3-(3,3,5-trimethyl-2,3-dihydro-1H-pyrrolo[3,2-b]pyridin-1-yl)propan-1-amine], the Ki [1] is reported as 100 to 500 nM and the Ki [2] is reported as under 100 nM.
In the case of `CNCC[C@H](c1ccc(Cl)s1)N1CCc2ncccc21` [Example 41, (R)-3-(5-Chlorothiophen-2-yl)-3-(2,3-dihydro-1H-pyrrolo[3,2-b]pyridin-1-yl)-N-methylpropan-1-amine], the Ki [1] is reported as 500 to 3000 nM and the Ki [2] is reported as over 1000 nM.
`CNCC[C@@H](c1cscc1C)N1CCc2ncccc21` [Example 50, (S)-3-(2,3-Dihydro-1H-pyrrolo[3,2-b]pyridin-1-yl)-N-methyl-3-(4-methylthiophen-3-yl)propan-1-amine] gave a Ki [1] of at least 3000 nM and a Ki [2] of 100 to 500 nM.
For `CNCC[C@H](c1ccsc1)N1CC(C)(C)c2ncc(F)cc21` [Example 87, (R)-3-(6-Fluoro-3,3-dimethyl-2,3-dihydro-1H-pyrrolo[3,2-b]pyridin-1-yl)-N-methyl-3-(thiophen-3-yl)propan-1-amine], the Ki [1] was 100 to 500 nM and the Ki [2] was over 1000 nM.
Work on `CNCCC(c1cccs1)N1CCc2c(C#N)cccc21` (stereo not shown) [Example 95, 1-(3-(Methylamino)-1-(thiophen-2-yl)propyl)indoline-4-carbonitrile] yielded a Ki [1] of 100 to 500 nM and a Ki [2] of under 100 nM.
`CNCCC(c1ccsc1)N1CCc2cnccc21` (stereo not shown) [Example 74, 3-(2,3-Dihydro-1H-pyrrolo[3,2-c]pyridin-1-yl)-N-methyl-3-(thiophen-3-yl)propan-1-amine] showed a Ki [1] of 500 to 3000 nM and a Ki [2] of over 1000 nM.
`CNCC[C@@H](c1ccsc1)N1CCc2nc(C)ccc21` [Example 63, (S)—N-methyl-3-(5-methyl-2,3-dihydro-1H-pyrrolo[3,2-b]pyridin-1-yl)-3-(thiophen-3-yl)propan-1-amine] showed a Ki [1] of 500 to 3000 nM and a Ki [2] of 500 to 1000 nM.
`CNCC[C@@H](c1cccs1)N1c2ccccc2C[C@H]1C` [Example 117, (S)—N-methyl-3-((R)-2-methylindolin-1-yl)-3-(thiophen-2-yl)propan-1-amine] showed a Ki [1] of at least 3000 nM and a Ki [2] of under 100 nM.
With `CNCC[C@@H](c1ccsc1)N1CC(C)(C)c2nc(C)ccc21` [Example 59, (S)-N-methyl-3-(thiophen-3-yl)-3-(3,3,5-trimethyl-2,3-dihydro-1H-pyrrolo[3,2-b]pyridin-1-yl)propan-1-amine] the Ki [1] was 100 to 500 nM and the Ki [2] was 100 to 500 nM.
`CNCCC(c1ccsc1)N1CC(C)(C)c2ncc(F)cc21` (stereo not shown) [Example 65, 3-(6-Fluoro-3,3-dimethyl-2,3-dihydro-1H-pyrrolo[3,2-b]pyridin-1-yl)-N-methyl-3-(thiophen-3-yl)propan-1-amine] was tested, and the Ki [1] was under 100 nM and the Ki [2] was over 1000 nM.
Work on `CNCC[C@@H](c1cc(C)cs1)N1CCc2ncccc21` [Example 57, (S)-3-(2,3-Dihydro-1H-pyrrolo[3,2-b]pyridin-1-yl)-N-methyl-3-(4-methylthiophen-2-yl)propan-1-amine] yielded a Ki [1] of 500 to 3000 nM and a Ki [2] of over 1000 nM.
